Assay results from ChEMBL document CHEMBL1125386, “Small atrial natriuretic peptide analogues: design, synthesis, and structural requirements for guanylate cyclase activation” (J Med Chem, 1992).

system: Atrial natriuretic peptide receptor 1 (Oryctolagus cuniculus); test: Binding affinity towards the low-affinity site atrionatriuretic peptide receptor 1 of rabbit adrenal membrane

| Structure (SMILES) | KL [nM] |
| --- | --- |
| CC[C@H](C)[C@@H]1NC(=O)[C@@H](CCCN=C(N)N)NC(=O)CNC(=O)CNC(=O)[C@@H](Cc2ccccc2)NC(=O)[C@H](C2CCCCC2)NC(=O)[C@H](NC(=O)[C@H](CO)NC(=O)[C@@H](N)CO)CSSC[C@H](C(=O)N[C@H](Cc2ccccc2)C(=O)N[C@H](CCCN=C(N)N)C(=O)O)NC(=O)[C@@H]([C@@H](C)CC)NC(=O)[C@H](CCCN=C(N)N)NC(=O)[C@@H](CC(=O)O)NC1=O | 180 |
| CC[C@H](C)[C@@H]1NC(=O)[C@@H](CCCN=C(N)N)NC(=O)C2CCC(CC2)NC(=O)C2CCC(CC2)NC(=O)[C@@H](Cc2ccccc2)NC(=O)C(C)NC(=O)[C@H](NC(=O)[C@H](CO)NC(=O)[C@@H](N)CO)CSSC[C@H](C(=O)N[C@H](Cc2ccccc2)C(=O)N[C@H](CCCN=C(N)N)C(=O)O)NC(=O)[C@@H]([C@@H](C)CC)NC(=O)[C@H](CCCN=C(N)N)NC(=O)[C@@H](CC(=O)O)NC1=O (stereo in doubt) | 1000 |
| CC[C@H](C)[C@@H]1NC(=O)[C@@H](CCCN=C(N)N)NC(=O)CNC(=O)CNC(=O)[C@@H](Cc2ccccc2)NC(=O)[C@H](NC(=O)[C@H](CO)NC(=O)[C@@H](N)CO)CSSC[C@H](C(=O)N[C@H](Cc2ccccc2)C(=O)N[C@H](CCCN=C(N)N)C(=O)O)NC(=O)[C@@H]([C@@H](C)CC)NC(=O)[C@H](CCCN=C(N)N)NC(=O)[C@@H](CC(=O)O)NC1=O | 4400 |
| CC[C@H](C)[C@@H]1NC(=O)[C@@H](CCCN=C(N)N)NC(=O)CNC(=O)CNC(=O)[C@@H](Cc2ccccc2)NC(=O)[C@H](NC(=O)[C@@H](CO)NC(=O)[C@H](N)CO)CSSC[C@H](C(=O)O)NC(=O)[C@@H](CCCN=C(N)N)NC(=O)[C@H](Cc2ccccc2)NC(=O)[C@@H]([C@@H](C)CC)NC(=O)[C@H](CCCN=C(N)N)NC(=O)[C@@H](CC(=O)O)NC1=O | 790 |
| CC[C@H](C)[C@@H]1NC(=O)[C@@H](CCCN=C(N)N)NC(=O)CNC(=O)CNC(=O)[C@@H](Cc2ccccc2)NC(=O)CNC(=O)[C@H](NC(=O)[C@H](CO)NC(=O)[C@@H](N)CO)CSSC[C@H](C(=O)N[C@H](Cc2ccccc2)C(=O)N[C@H](CCCN=C(N)N)C(=O)O)NC(=O)[C@@H]([C@@H](C)CC)NC(=O)[C@H](CCCN=C(N)N)NC(=O)[C@@H](CC(=O)O)NC1=O | 410 |
| CC[C@H](C)[C@@H]1NC(=O)[C@@H](CCCN=C(N)N)NC(=O)CNC(=O)CNC(=O)[C@@H](Cc2ccccc2)NC(=O)CNC(=O)[C@H](NC(=O)[C@H](CO)NC(=O)[C@@H](N)CO)CSSC[C@H](C(=O)N2CCC[C@@H]2C(=O)N[C@H](CCCN=C(N)N)C(=O)O)NC(=O)[C@@H]([C@@H](C)CC)NC(=O)[C@H](CCCN=C(N)N)NC(=O)[C@@H](CC(=O)O)NC1=O | 440 |
| CC[C@H](C)[C@@H]1NC(=O)[C@@H](CCCN=C(N)N)NC(=O)[C@H](CC(=O)O)NC(=O)[C@@H]([C@@H](C)CC)NC(=O)[C@H](CCCN=C(N)N)NC(=O)CNC(=O)CNC(=O)[C@H](Cc2ccccc2)NC(=O)CN(C)C(=O)[C@@H](NC(=O)[C@@H](CO)NC(=O)[C@H](N)CO)CSSC[C@@H](C(=O)N[C@H](Cc2ccccc2)C(=O)N[C@H](CCCN=C(N)N)C(=O)O)NC1=O | 410 |
| CC[C@H](C)[C@@H]1NC(=O)[C@H](CCCN=C(N)N)NC(=O)[C@@H](CC(=O)O)NC(=O)[C@H]([C@@H](C)CC)NC(=O)[C@H](CCCNC(N)=O)NC(=O)CNC(=O)CNC(=O)[C@@H](Cc2ccccc2)NC(=O)[C@@H](C)NC(=O)[C@@H](NC(=O)[C@H](CO)NC(=O)[C@@H](N)CO)CSSC[C@@H](C(=O)N[C@H](Cc2ccccc2)C(=O)N[C@H](CCCN=C(N)N)C(=O)O)NC1=O | 6900 |
| CC[C@H](C)[C@@H]1NC(=O)[C@@H](CCCN=C(N)N)NC(=O)CNC(=O)CNC(=O)[C@@H](Cc2ccccc2)NC(=O)CCNC(=O)[C@H](NC(=O)[C@H](CO)NC(=O)[C@@H](N)CO)CSSC[C@H](C(=O)N[C@H](Cc2ccccc2)C(=O)N[C@H](CCCN=C(N)N)C(=O)O)NC(=O)[C@@H]([C@@H](C)CC)NC(=O)[C@H](CCCN=C(N)N)NC(=O)[C@@H](CC(=O)O)NC1=O | 6500 |
| CC[C@H](C)[C@@H]1NC(=O)[C@@H](CCCN=C(N)N)NC(=O)CNC(=O)CNC(=O)[C@H](Cc2ccccc2)NC(=O)[C@H](NC(=O)[C@H](CO)NC(=O)[C@@H](N)CO)CSSC[C@H](C(=O)N[C@H](Cc2ccccc2)C(=O)N[C@H](CCCN=C(N)N)C(=O)O)NC(=O)[C@@H]([C@@H](C)CC)NC(=O)[C@H](CCCN=C(N)N)NC(=O)[C@@H](CC(=O)O)NC1=O | 2000 |

Now from value to molecule:

| KL [nM] | Structure (SMILES) |
| --- | --- |
| 280 | CC[C@H](C)[C@@H]1NC(=O)[C@@H](CCCN=C(N)N)NC(=O)CNC(=O)CNC(=O)[C@@H](C2CCCCC2)NC(=O)[C@H](NC(=O)[C@H](N)CCCN=C(N)N)CSSC[C@H](C(=O)O)NC(=O)[C@@H](CCCN=C(N)N)NC(=O)[C@H](C)NC(=O)[C@@H]([C@@H](C)CC)NC(=O)[C@H](CCCN=C(N)N)NC(=O)[C@@H](CC(=O)O)NC1=O |
| 790 | CC[C@H](C)[C@@H]1NC(=O)[C@@H](CCCN=C(N)N)NC(=O)CNC(=O)CNC(=O)[C@@H](Cc2ccccc2)NC(=O)C(C)NC(=O)[C@H](NC(=O)CCCCCCCN)CSSC[C@H](C(=O)N[C@H](Cc2ccccc2)C(=O)N[C@H](CCCN=C(N)N)C(=O)O)NC(=O)[C@@H]([C@@H](C)CC)NC(=O)[C@H](CCCN=C(N)N)NC(=O)[C@@H](CC(=O)O)NC1=O (stereo in doubt) |
| 280 | CC[C@H](C)[C@@H]1NC(=O)[C@@H](CCCN=C(N)N)NC(=O)CNC(=O)CNC(=O)[C@@H](Cc2ccccc2)NC(=O)C(C)NC(=O)[C@H](NC(=O)CCCCN)CSSC[C@H](C(=O)N[C@H](Cc2ccccc2)C(=O)N[C@H](CCCN=C(N)N)C(=O)O)NC(=O)[C@@H]([C@@H](C)CC)NC(=O)[C@H](CCCN=C(N)N)NC(=O)[C@@H](CC(=O)O)NC1=O (stereo in doubt) |
| 240 | CC[C@H](C)[C@@H]1NC(=O)[C@@H](CCCN=C(N)N)NC(=O)CNC(=O)CNC(=O)[C@@H](Cc2ccccc2)NC(=O)C(C)NC(=O)[C@H](NC(=O)[C@@H](N)CCCN=C(N)N)CSSC[C@H](C(=O)N[C@H](Cc2ccccc2)C(=O)N[C@H](CCCN=C(N)N)C(=O)O)NC(=O)[C@@H]([C@@H](C)CC)NC(=O)[C@H](CCCN=C(N)N)NC(=O)[C@@H](CC(=O)O)NC1=O (stereo in doubt) |
| 430 | CC[C@H](C)[C@@H]1NC(=O)[C@@H](CCCN=C(N)N)NC(=O)CNC(=O)CNC(=O)[C@@H](C2CCCCC2)NC(=O)CCSSC[C@H](C(N)=O)NC(=O)[C@@H](CCCN=C(N)N)NC(=O)[C@H](Cc2ccccc2)NC(=O)[C@@H]([C@@H](C)CC)NC(=O)[C@H](CCCN=C(N)N)NC(=O)[C@@H](CCC(=O)O)NC1=O |
| 1700 | CC[C@H](C)[C@@H]1NC(=O)[C@@H](CCCN=C(N)N)NC(=O)CNC(=O)CNC(=O)[C@@H](Cc2cc(I)c(O)c(I)c2)NC(=O)[C@H](NC(=O)[C@H](N)CCCN=C(N)N)CSSC[C@H](C(N)=O)NC(=O)[C@@H](CCCN=C(N)N)NC(=O)[C@H](Cc2ccccc2)NC(=O)[C@@H]([C@@H](C)CC)NC(=O)[C@H](CCCN=C(N)N)NC(=O)[C@@H](CC(=O)O)NC1=O |
| 460 | CC[C@H](C)[C@@H]1NC(=O)[C@@H](CCCN=C(N)N)NC(=O)CNC(=O)CNC(=O)[C@@H](C2CCCCC2)NC(=O)[C@H](NC(=O)[C@H](N)CCCN=C(N)N)CSSC[C@H](C(=O)O)NC(=O)[C@@H](CCCN=C(N)N)NC(=O)[C@H](Cc2ccccc2)NC(=O)[C@@H]([C@@H](C)CC)NC(=O)[C@H](CCCN=C(N)N)NC(=O)[C@@H](CC(=O)O)NC1=O |
| 8900 | CC[C@H](C)[C@@H]1NC(=O)[C@@H](CCCN=C(N)N)NC(=O)CNC(=O)CNC(=O)[C@@H](C2CCCCC2)NC(=O)[C@H](N)CSSC[C@H](C(N)=O)NC(=O)[C@@H](CCCN=C(N)N)NC(=O)[C@H](Cc2ccccc2)NC(=O)[C@@H]([C@@H](C)CC)NC(=O)[C@H](C)NC(=O)[C@@H](CC(=O)O)NC1=O |
| 150 | CC[C@H](C)[C@@H]1NC(=O)[C@@H](CCCCN)NC(=O)CNC(=O)CNC(=O)[C@@H](C2CCCCC2)NC(=O)CCSSC[C@H](C(N)=O)NC(=O)[C@@H](CCCN=C(N)N)NC(=O)[C@H](Cc2ccccc2)NC(=O)[C@@H]([C@@H](C)CC)NC(=O)[C@H](CCCN=C(N)N)NC(=O)[C@@H](CC(=O)O)NC1=O |
| 960 | CC[C@H](C)[C@@H]1NC(=O)[C@@H](CCCN=C(N)N)NC(=O)CNC(=O)CNC(=O)[C@@H](Cc2ccccc2)NC(=O)C(C)NC(=O)[C@H](NC(=O)[C@H](CO)NC(=O)[C@@H](N)CO)CSSC[C@H](C(=O)N2CC(C(=O)N[C@H](CCCN=C(N)N)C(=O)O)Cc3ccccc32)NC(=O)[C@@H]([C@@H](C)CC)NC(=O)[C@H](CCCN=C(N)N)NC(=O)[C@@H](CC(=O)O)NC1=O (stereo in doubt) |
| 540 | CC[C@H](C)[C@@H]1NC(=O)[C@H](CCCN=C(N)N)NC(=O)[C@@H](CC(=O)O)NC(=O)[C@H]([C@@H](C)CC)NC(=O)[C@@H](CCCN=C(N)N)NC(=O)CNC(=O)CNC(=O)[C@@H](Cc2ccccc2)NC(=O)C(C)NC(=O)[C@@H](NC(=O)[C@H](CO)NC(=O)[C@@H](N)CO)CSSC[C@@H](C(=O)N2C[C@@H](C(=O)N[C@H](CCCN=C(N)N)C(=O)O)Cc3ccccc32)NC1=O (stereo in doubt) |
| 2700 | CC[C@H](C)[C@@H]1NC(=O)[C@@H](CCCN=C(N)N)NC(=O)CNC(=O)CNC(=O)[C@@H](Cc2ccccc2)NC(=O)C(C)NC(=O)[C@H](N)CSSC[C@H](C(=O)N[C@H](Cc2ccccc2)C(=O)N[C@H](CCCN=C(N)N)C(=O)O)NC(=O)[C@@H]([C@@H](C)CC)NC(=O)[C@H](CCCN=C(N)N)NC(=O)[C@@H](CC(=O)O)NC1=O (stereo in doubt) |
| 200 | CC[C@H](C)[C@@H]1NC(=O)[C@@H](CCCN=C(N)N)NC(=O)[C@@H](C)NC(=O)[C@@H](C)NC(=O)[C@@H](C2CCCCC2)NC(=O)[C@H](NC(=O)[C@H](N)CCCN=C(N)N)CSSC[C@H](C(N)=O)NC(=O)[C@@H](CCCN=C(N)N)NC(=O)[C@H](Cc2ccccc2)NC(=O)[C@@H]([C@@H](C)CC)NC(=O)[C@H](CCCN=C(N)N)NC(=O)[C@@H](CC(=O)O)NC1=O |
| 390 | CC[C@H](C)[C@@H]1NC(=O)[C@@H](CCCN=C(N)N)NC(=O)CNC(=O)CNC(=O)[C@@H](Cc2ccccc2)NC(=O)C(C)NC(=O)[C@H](NC(=O)[C@@H](N)CCCCN)CSSC[C@H](C(=O)N[C@H](Cc2ccccc2)C(=O)N[C@H](CCCN=C(N)N)C(=O)O)NC(=O)[C@@H]([C@@H](C)CC)NC(=O)[C@H](CCCN=C(N)N)NC(=O)[C@@H](CC(=O)O)NC1=O (stereo in doubt) |
